Assay results from US20260234144A1 (TAY THERAPEUTICS LIMITED, priority 2023, published 2026).

System: R223X stop codon in the mutated luciferase gene, ADXC8 luciferase reporter cell line
Assay: cells
Format: cell-based
Settings: ADXC8 cells, 24 hours; for Emax / EC (100% of 200 uM G418 response): 24 h; for Emax: read-out: Fold Over Control, maximum fold response relative to 200 μM G418; for EC (100% of 200 uM G418 response): read-out: pC100%, negative logarithm of the concentration giving the same response as 200 μM G418; for Fold Over Control: maximum fold response relative to 200 μM G418; for pC100%: negative logarithm of the concentration giving the same response as 200 μM G418

Cc1ccnc2nc(NC3CCN(C)CC3)nc(N)c12 [Example 2, 5-methyl-N^2-(1-methylpiperidin-4-yl)pyrido[2,3-d]pyrimidine-2,4-diamine]
Emax: 100 to 3000%
EC (100% of 200 uM G418 response): 10 to 100 µM

COCC1CN(CCNc2nc(N)c3c(C)cc(C)nc3n2)C1 [Example 164]
Emax: 0 to 100%
EC (100% of 200 uM G418 response): > 31.6 µM

CNc1nc(N[C@H]2CN(Cc3ccccc3)C[C@H]2F)nc2nc(C)cc(C)c12 [Example 621]
Emax: 100 to 3000%
EC (100% of 200 uM G418 response): 10 to 100 µM

COCc1ccc(CN2CCC(Nc3nc(N)c4c(C)cc(C)nc4n3)CC2)cc1 [Example 488]
Emax: 100 to 3000%
EC (100% of 200 uM G418 response): 1 to 10 µM

CN1CCC(Nc2nc(N)c3ccc(-c4ccc(C#N)cc4)nc3n2)CC1 [Example 95]
EC (100% of 200 uM G418 response): 10 to 100 µM

Cc1cc(C)c2c(N)nc(NC3CCN(Cc4ccccc4C(F)(F)F)CC3)nc2n1 [Example 490]
Emax: 100 to 3000%
EC (100% of 200 uM G418 response): 10 to 100 µM

Cc1cc(C)c2c(NC(C)C)nc(NC3CCN(C)CC3)nc2n1 [Example 264]
Emax: 100 to 3000%
EC (100% of 200 uM G418 response): 1 to 10 µM

Cc1nc2nc(NC3CCN(Cc4ccc(C#N)cc4)CC3)nc(N)c2c2c1CCC2 [Example 554]
Emax: 100 to 3000%
EC (100% of 200 uM G418 response): 0.1 to 1 µM

COCc1ccc(-c2ccc3c(N)nc(NC4CCN(C)CC4)nc3n2)cc1 [Example 78]
Emax: 100 to 3000%
EC (100% of 200 uM G418 response): 1 to 10 µM

Cc1cc(C)c2c(N)nc(NCCN3CC(F)C3)nc2n1 [Example 163]
Emax: 100 to 3000%
EC (100% of 200 uM G418 response): 10 to 100 µM

CN1CCC(Nc2nc(N)c3cc(-c4cncs4)cnc3n2)CC1 [Example 647]
Emax: 100 to 3000%
EC (100% of 200 uM G418 response): 10 to 100 µM

CNc1nc(N[C@H]2CNC[C@@H]2C(F)(F)F)nc2nc(C)cc(C)c12 [Example 417]
EC (100% of 200 uM G418 response): 1 to 10 µM

Cc1cc(C)c2c(N)nc(NC3CCN(Cc4cc[nH]n4)CC3)nc2n1 [Example 469]
Emax: 100 to 3000%
EC (100% of 200 uM G418 response): 10 to 100 µM

COC(C)c1cnc2nc(NC3CCN(C)CC3)nc(N)c2c1 (stereo not drawn) [Example 284]
Emax: 0 to 100%
EC (100% of 200 uM G418 response): > 31.6 µM

CN1CCC(Nc2nc(N)c3ccc(-c4cccc(N(C)C)c4)nc3n2)CC1 [Example 52]
Emax: 100 to 3000%
EC (100% of 200 uM G418 response): 1 to 10 µM

CN1CCC(Nc2nc(N)c3ccc(-c4cccc(CN)c4)nc3n2)CC1 [Example 74]
EC (100% of 200 uM G418 response): 1 to 10 µM

Cc1cc(C)c2c(N)nc(NC[C@@H]3CN(C(=O)OC(C)(C)C)CCO3)nc2n1 [Example 136]
Emax: 0 to 100%
EC (100% of 200 uM G418 response): > 100 µM

Cc1cc(C)c2c(N)nc(NC3CCN(Cc4cccc5cn[nH]c45)CC3)nc2n1 [Example 659]
Emax: 100 to 3000%
EC (100% of 200 uM G418 response): 0.1 to 1 µM

CNc1nc(NC2CNCC2(F)F)nc2nc(C)cc(C)c12 (single isomer, unassigned) [Example 438]
Fold Over Control: # (Fold over Ctrl ≥ 0 ≤ 1)
pC100%: * (pC100 ≤ 4.5)

CNc1nc(N[C@H]2CN[C@H](COC)C2)nc2nc(C)cc(C)c12 [Example 414]
EC (100% of 200 uM G418 response): 1 to 10 µM

CN1CCC(Nc2nc(N)c3cc(-c4ncco4)cnc3n2)CC1 [Example 645]
Emax: 0 to 100%
EC (100% of 200 uM G418 response): > 100 µM

CNc1ccnc2nc(NC3CCN(C)CC3)nc(N)c12 [Example 247]
Emax: 0 to 100%
EC (100% of 200 uM G418 response): > 100 µM

CNc1nc(N[C@H]2CN(C)C[C@@H]2O)nc2nc(C)c(Cl)c(C)c12 [Example 629]
EC (100% of 200 uM G418 response): 1 to 10 µM

Cc1cc(C)c2c(N)nc(N[C@@H]3CCNC[C@@H]3F)nc2n1 [Example 586]
EC (100% of 200 uM G418 response): 1 to 10 µM

Cc1cc(C)c2c(N)nc(NC3CC4CCC[C@H](C3)N4)nc2n1 (stereo partly drawn) [Example 196]
Emax: 100 to 3000%
EC (100% of 200 uM G418 response): 1 to 10 µM

Cc1nc2nc(NC3CCN(Cc4ccccc4O)CC3)nc(N)c2c2c1CCC2 [Example 537]
Emax: 100 to 3000%
EC (100% of 200 uM G418 response): 0.1 to 1 µM

[2H]C([2H])([2H])Nc1nc(NC2CCNCC2)nc2nc(C)cc(C)c12 [Example 589]
EC (100% of 200 uM G418 response): 1 to 10 µM

CNC(=O)c1ccc(CN2CCC(Nc3nc(N)c4c(C)cc(C)nc4n3)CC2)cc1 [Example 475]
Emax: 100 to 3000%
EC (100% of 200 uM G418 response): 10 to 100 µM

Cc1cc(C)c2c(N)nc(NCCCN3CC(F)C3)nc2n1 [Example 186]
Emax: 100 to 3000%
EC (100% of 200 uM G418 response): 10 to 100 µM

CNCc1ccc(-c2ccc3c(N)nc(NC4CCN(C)CC4)nc3n2)cc1 [Example 56]
Emax: 100 to 3000%
EC (100% of 200 uM G418 response): 10 to 100 µM

Cc1cc(C)c2c(N)nc(NC34CNCC3C4)nc2n1 (single isomer, unassigned) [Example 260, N^2-(3-azabicyclo[3.1.0]hexan-1-yl)-5,7-dimethylpyrido[2,3-d]pyrimidine-2,4-diamine]
Fold Over Control: ## (Fold over Ctrl > 1 ≤ 30)
pC100%: +++ (pC100% > 6.0 ≤ 7.0)

Cc1cc(C)c2c(N)nc(NC3CCN(Cc4ccc(O)cc4)CC3)nc2n1 [Example 460]
Emax: 100 to 3000%
EC (100% of 200 uM G418 response): 1 to 10 µM

Cc1cc(-c2ccccc2)nc2nc(NC3CCN(C)CC3)nc(N)c12 [Example 16, 5-methyl-N^2-(1-methylpiperidin-4-yl)-7-phenylpyrido[2,3-d]pyrimidine-2,4-diamine]
EC (100% of 200 uM G418 response): 0.1 to 1 µM

[2H]C([2H])([2H])N1CCC(Nc2nc(N)c3c(C)cc(C)nc3n2)CC1 [Example 584]
EC (100% of 200 uM G418 response): 1 to 10 µM

C=C(C)c1ccnc2nc(NC3CCN(C)CC3)nc(N)c12 [Example 245, N^2-(1-methylpiperidin-4-yl)-5-(prop-1-en-2-yl)pyrido[2,3-d]pyrimidine-2,4-diamine]
Emax: 0 to 100%
EC (100% of 200 uM G418 response): > 100 µM

CN1CCC(Nc2nc(N)c3ccc(C4CCCC4)nc3n2)CC1 [Example 310]
EC (100% of 200 uM G418 response): 1 to 10 µM

Cc1cc(C)c2c(N)nc(NC3CCN(Cc4cccc(C)c4O)CC3)nc2n1 [Example 539]
Emax: 100 to 3000%
EC (100% of 200 uM G418 response): 0.1 to 1 µM

CNc1nc(NC2CCN3CCCC3C2)nc2nc(C)cc(C)c12 (single isomer, unassigned) [Example 442]
EC (100% of 200 uM G418 response): 1 to 10 µM

COCc1ccccc1-c1ccc2c(N)nc(NC3CCN(C)CC3)nc2n1 [Example 58]
Emax: 100 to 3000%
EC (100% of 200 uM G418 response): 10 to 100 µM

COCCNc1nc(NC2CCN(C)CC2)nc2nc(C)cc(C)c12 [Example 269]
Emax: 100 to 3000%
EC (100% of 200 uM G418 response): 1 to 10 µM

CNc1nc(NC2CNCC2C#N)nc2nc(C)cc(C)c12 (single isomer, unassigned) [Example 453]
Fold Over Control: ## (Fold over Ctrl > 1 ≤ 30)
pC100%: + (pC100% > 4.0 ≤ 5.0)

COCc1ccc2c(N)nc(NC3CCN(C)CC3)nc2n1 [Example 237, 7-(methoxymethyl)-N^2-(1-methylpiperidin-4-yl)pyrido[2,3-d]pyrimidine-2,4-diamine]
Emax: 100 to 3000%
EC (100% of 200 uM G418 response): 10 to 100 µM

Cc1cc(C)c2c(N)nc(N[C@H]3CCN(C)C3)nc2n1 [Example 15, (S)-5,7-dimethyl-N^2-(1-methylpyrrolidin-3-yl)pyrido[2,3-d]pyrimidine-2,4-diamine]
Emax: 100 to 3000%
EC (100% of 200 uM G418 response): 1 to 10 µM

Cc1cc(C)c2c(N)nc(N[C@H]3CCNCC3(F)F)nc2n1 [Example 220]
Emax: 100 to 3000%
EC (100% of 200 uM G418 response): 1 to 10 µM

Cc1cc(C)c2c(N)nc(NCC3CN(C)CCO3)nc2n1 (stereo not drawn) [Example 152]
Emax: 100 to 3000%
EC (100% of 200 uM G418 response): 10 to 100 µM

Cc1ccccc1-c1ccc2c(N)nc(NC3CCN(C)CC3)nc2n1 [Example 110]
EC (100% of 200 uM G418 response): 1 to 10 µM

CCNc1nc(N[C@]23C[C@H]2CN(C)C3)nc2nc(C)cc(C)c12 [Example 632]
Emax: 100 to 3000%
EC (100% of 200 uM G418 response): 0.1 to 1 µM

COc1cccc(CN2CCC(Nc3nc(N)c4c(C)cc(C)nc4n3)CC2)c1 [Example 494]
Emax: 100 to 3000%
EC (100% of 200 uM G418 response): 1 to 10 µM

Cc1cc(C)c2c(N)nc(NCCN(C)C)nc2n1 [Example 142, N^2-(2-(dimethylamino)ethyl)-5,7-dimethylpyrido[2,3-d]pyrimidine-2,4-diamine]
EC (100% of 200 uM G418 response): 1 to 10 µM

CN1CCC(Nc2nc(N)c3cc(Br)cnc3n2)CC1 [Example 20, 6-bromo-N^2-(1-methylpiperidin-4-yl)pyrido[2,3-d]pyrimidine-2,4-diamine]
Emax: 100 to 3000%
EC (100% of 200 uM G418 response): 10 to 100 µM

CN1CCC(Nc2nc(N)c3ccc(-c4ccc(CO)cc4)nc3n2)CC1 [Example 94]
Emax: 100 to 3000%
EC (100% of 200 uM G418 response): 10 to 100 µM

Cc1cc(C)c2c(N)nc(NCC3CCNCC3)nc2n1 [Example 141, 5,7-dimethyl-N^2-(piperidin-4-ylmethyl)pyrido[2,3-d]pyrimidine-2,4-diamine]
Emax: 100 to 3000%
EC (100% of 200 uM G418 response): 10 to 100 µM

Cc1cc(C)c2c(N)nc(NCCCN3CCC3)nc2n1 [Example 191]
Emax: 100 to 3000%
EC (100% of 200 uM G418 response): 10 to 100 µM

Cc1cc(C)c2c(N)nc(NC[C@@H]3CCNC3)nc2n1 [Example 217]
EC (100% of 200 uM G418 response): 1 to 10 µM

CNc1nc(N[C@@H]2CCN(C)C2)nc2nc(OC)c(CCO)c(C)c12 [Example 513, (R)-2-(7-methoxy-5-methyl-4-(methylamino)-2-((1-methylpyrrolidin-3-yl)amino)pyrido[2,3-d]pyrimidin-6-yl)ethan-1-ol]
Emax: 0 to 100%
EC (100% of 200 uM G418 response): > 31.6 µM

CC(O)c1ccnc2nc(NC3CCN(C)CC3)nc(N)c12 (stereo not drawn) [Example 308]
Emax: 0 to 100%
EC (100% of 200 uM G418 response): > 100 µM

CN1CCC(Nc2nc(N)c3ccc(-c4ccc(CN)cc4)nc3n2)CC1 [Example 63]
Emax: 100 to 3000%
EC (100% of 200 uM G418 response): 1 to 10 µM

Cc1cc(C)c2c(N)nc(N[C@@H]3CCN(C)C3)nc2n1 [Example 14, (R)-5,7-dimethyl-N^2-(1-methylpyrrolidin-3-yl)pyrido[2,3-d]pyrimidine-2,4-diamine]
Emax: 100 to 3000%
EC (100% of 200 uM G418 response): 1 to 10 µM
